Laboratory results as given in patent US6103883A (priority 1999, dated 2000).

Key:
verotoxin binding to Gb3 [1] = molecular target: T1, verotoxin binding to Gb3 (Enterobacteria phage H19B, UniProt P69179); conditions: spectrophotometric detection; FIG. 6B
verotoxin binding to Gb3 [2] = molecular target: T1, verotoxin binding to Gb3; conditions: competition with radiolabelled verotoxin 1; FIG. 5C

| Compound | inhibition of binding of verotoxin to Gb3 (verotoxin binding to Gb3 [1]) | inhibition of verotoxin binding to Gb3 (verotoxin binding to Gb3 [2]) |
| --- | --- | --- |
| O=C(CC12CC3CC(CC(C3)C1)C2)NC(CO[C@@H]1O[C@H](CO)[C@@H](O[C@@H]2O[C@H](CO)[C@H](O[C@H]3O[C@H](CO)[C@H](O)[C@H](O)[C@H]3O)[C@H](O)[C@H]2O)[C@H](O)[C@H]1O)C(O)C(=O)O (stereo partly shown) [Compound A1] | do not appear to be effective inhibitors | – |
| CCCCCCCCCCCCC/C=C/[C@@H](O)[C@H](CO[C@@H]1O[C@H](CO)[C@@H](O[C@@H]2O[C@H](CO)[C@H](O[C@H]3O[C@H](CO)[C@H](O)[C@H](O)[C@H]3O)[C@H](O)[C@H]2O)[C@H](O)[C@H]1O)NC(=O)CC12CC3CC(CC(C3)C1)C2 [Compound A3] | effective water-soluble inhibitor | – |
| CN(C)C(CO[C@@H]1O[C@H](CO)[C@@H](O[C@@H]2O[C@H](CO)[C@H](O[C@H]3O[C@H](CO)[C@H](O)[C@H](O)[C@H]3O)[C@H](O)[C@H]2O)[C@H](O)[C@H]1O)C(O)C(=O)NC12CC3CC(CC(C3)C1)C2 (stereo partly shown) [Compound A] | – | effective inhibition |
| CCCCCCCCCCCCC/C=C/[C@@H](O)[C@H](CO[C@@H]1O[C@H](CO)[C@H](O)[C@H](O)[C@H]1O)NC(=O)CC12CC3CC(CC(C3)C1)C2 [Compound B1] | do not appear to be effective inhibitors | – |
| O=C(CC12CC3CC(CC(C3)C1)C2)NC(CO[C@@H]1O[C@H](CO)[C@H](O)[C@H](O)[C@H]1O)C(O)C(=O)O (stereo partly shown) [Compound B2] | do not appear to be effective inhibitors | – |
| CN(C)C(CO[C@@H]1O[C@H](CO)[C@@H](O[C@@H]2O[C@H](CO)[C@H](O[C@H]3O[C@H](CO)[C@H](O)[C@H](O)[C@H]3O)[C@H](O)[C@H]2O)[C@H](O)[C@H]1O)C(O)C(=O)Nc1c2c(nc3ccccc13)CCCC2 (stereo partly shown) [Compound B] | – | effective inhibition |
| OC[C@H]1O[C@H](O[C@@H]2[C@H](O)[C@@H](O)[C@H](O[C@H]3[C@H](O)[C@@H](O)C(O)O[C@@H]3CO)O[C@@H]2CO)[C@H](O)[C@@H](O)[C@H]1O (stereo partly shown) [Gb3 -sugar, globotriaose, reference compound] | – | virtually no inhibition |
